In one data set the test system is HeLa cells. In words: Proliferation assay, HeLa (crystal violet). The note with it: Homo sapiens, 96 h, 4 days, read-out: Inhibition of HeLa cell proliferation IC50. It counts as cell-based. The protocol:
(§1) Cultivated tumour cells (HeLa, human cervical tumour cells, ATCC CCL-2; NCI-H460, human non-small cell lung carcinoma cells, ATCC HTB-177; A2780, human ovarian carcinoma cells, ECACC #93112519; DU 145, hormone-independent human prostate carcinoma cells, ATCC HTB-81; HeLa-MaTu-ADR, multidrug-resistant human cervical carcinoma cells, EPO-GmbH Berlin; Caco-2, human colorectal carcinoma cells, ATCC HTB-37; B16F10, mouse melanoma cells, ATCC CRL-6475) were plated at a density of 5,000 cells/well (DU145, HeLa-MaTu-ADR), 3,000 cells/well (NCI-H460, HeLa), 2,500 cells/well (A2780), 1,500 cells/well (Caco-2), or 1,000 cells/well (B16F10) in a 96-well multititer plate in 200 μL of their respective growth medium supplemented 10% fetal calf serum. After 24 hours, the cells of one plate (zero-point plate) were stained with crystal violet (see below), while the medium of the other plates was replaced by fresh culture medium (200 μl), to which the test substances were added in various concentrations (0 μM, as well as in the range of 0.001-10 μM; the final concentration of the solvent dimethyl sulfoxide was 0.5%). The cells were incubated for 4 days in the presence of test substances. Cell proliferation was determined by staining the cells with crystal violet: the cells were fixed by adding 20 μl/measuring point of an 11% glutaric aldehyde solution for 15 minutes at room temperature. After three washing cycles of the fixed cells with water, the plates were dried at room temperature. The cells were stained by adding 100 μl/measuring point of a 0.1% crystal violet solution (pH 3.0). After three washing cycles of the stained cells with water, the plates were dried at room temperature. The dye was dissolved by adding 100 μl/measuring point of a 10% acetic acid solution. The extinction was determined by photometry at a wavelength of 595 nm. The change of cell number, in percent, was calculated by normalization of the measured values to the extinction values of the zero-point plate (=0%) and the extinction of the untreated (0 μm) cells (=100%).

A short description of data set [1]: Equilibrium shake flask solubility, high throughput from DMSO solution (Method 4a). It counts as physicochemical. The note with it: phosphate buffer pH 6.5 with 1% DMSO, aqueous buffer, phosphate buffer pH 6.5, 24 hrs, room temperature. From the text: 4. Equilibrium Shake Flask Solubility Assays:
4a) High Throughput Determination of Aqueous Drug Solubility (100 mmolar in DMSO)
The high throughput screening method to determine aqueous drug solubility is based on:
Thomas Onofrey and Greg Kazan, Performance and correlation of a 96-well high throughput screening method to determine aqueous drug solubility, http://www.millipore.com/publications.nsf/a73664f9f981af8c852569b9005b4eee/e565516fb76e7435852 56da30052db77/$FILE/AN1731EN00.pdf
The assay was run in a 96-well plate format. Each well was filled with an individual compound.
All pipetting steps were performed using a robot platform.
100 μl of a 10 mmolar solution of drug in DMSO were concentrated by vacuum centrifugation and resolved in 10 μl DMSO. 990 μl phosphate buffer pH 6.5 were added. The content of DMSO amounts to 1%. The multititer plate was put on a shaker and mixed for 24 hrs at room temperature. 150 μl of the suspension were transferred to a filtration plate. After filtration using a vacuum manifold the filtrate was diluted 1:400 and 1:8000. A second microtiter plate with 20 μl of a 10 mM solution of drug in DMSO served for calibration. Two concentrations (0.005 μM and 0.0025 μM) were prepared by dilution in DMSO/water 1:1 and used for calibration. Filtrate and calibration plates were quantified by HPLC-MS/MS.
Preparation of 0.1 m Phosphate Buffer pH 6.5:
61.86 g NaCl and 39.54 mg KH2PO4 were solved in water and filled up to […]. The mixture was diluted 1:10 with water and the pH adjusted to 6.5 by NaOH.
Materials: • Millipore MultiScreenHTS-HV Plate 0.45 μm
Chromatographic conditions were as follows: • HPLC column: Ascentis Express C18 2.7 μm 4.6×30 mm • Injection volume: 1 μl • Flow: 1.5 ml/min • Mobile phase: acidic gradient • A: Water/0.05% HCOOH • B: Acetonitrile/0.05% HCOOH • 0 min→95% A 5% B • 0.75 min→5% A 95% B • 2.75 min→5% A 95% B • 2.76 min→95% A 5% B • 3 min→95% A 5% B
The areas of sample- and calibration injections were determined by using mass spectromety software (AB SCIEX: Discovery Quant 2.1.3. and Analyst 1.6.1). The calculation of the solubility value (in mg/l) was executed by an inhouse developed Excel macro.

For data set [2], the target named is T1, CDK2/CycE (Homo sapiens, UniProt P24941). The data set can be described thus: CDK2/CycE kinase assay (TR-FRET, Method 2a).
Data set [3] concerns the target T1, CDK2/CycE. The data set can be described thus: CDK2/CycE high ATP kinase assay (TR-FRET, Method 2b). (In TR-FRET formats the signal depends on donor and acceptor labels being close together.)
The subject of another data set is HeLa-MaTu-ADR cells. The data set can be described thus: Proliferation assay, HeLa-MaTu-ADR (crystal violet). The note with it: Homo sapiens, 96 h, 4 days, read-out: Inhibition of HeLa-MaTu-ADR cell proliferation IC50. The data set is classed as cell-based. The protocol: as §1
The test system of another data set is NCI-H460 cells. In words: Proliferation assay, NCI-H460 (crystal violet). The data set is classed as cell-based. The settings on record: Homo sapiens, 96 h; NCI-H460, 4 days; read-out: Inhibition of NCI-H460 cell proliferation IC50. The protocol: as §1
In the next data set the test system is DU145 cells. In words: Proliferation assay, DU145 (crystal violet). It counts as cell-based. The note with it: Homo sapiens, DU-145, 96 h; DU145, 4 days; read-out: Inhibition of DU145 cell proliferation IC50. The protocol:
as §1

In another data set the test system is Caco-2 cells. The data set can be described thus: Proliferation assay, Caco-2 (crystal violet). It counts as cell-based. The settings on record: Homo sapiens, 96 h; Caco-2, 4 days; read-out: Inhibition of Caco-2 cell proliferation IC50. Here is the method:
as §1

In another data set the test system is B16F10 cells. The data set can be described thus: Proliferation assay, B16F10 (crystal violet). The data set is classed as cell-based. The settings on record: Mus musculus, B16-F10, 96 h; B16F10, 4 days; read-out: Inhibition of B16F10 cell proliferation IC50. Here is the method:
as §1

A further data set deals with A2780 cells. The data set can be described thus: Proliferation assay, A2780 (crystal violet). The data set is classed as cell-based. The note with it: Homo sapiens, 96 h; A2780, 4 days; read-out: Inhibition of A2780 cell proliferation IC50. The protocol: as §1
A short description of data set [4]: Caco-2 permeation assay (Method 5). The data set is classed as in vitro ADME. The settings on record: human, pH 7.2, Caco-2, 2 μM test compound, 2 h.
Method: Cells were maintained at 37° C. in a humidified 5% CO2 atmosphere. Medium was changed every 2-3 day. Before running the permeation assay, the culture medium was replaced by a FCS-free hepes-carbonate transport buffer (pH 7.2). For assessment of monolayer integrity the transepithelial electrical resistance (TEER) was measured. Test compounds were predissolved in DMSO and added either to the apical or basolateral compartment in final concentration of 2 μM in transport buffer. Before and after 2 h incubation at 37° C. samples were taken from both compartments. Analysis of compound content was done after precipitation with methanol by LC/MS/MS analysis. Permeability (Papp) was calculated in the apical to basolateral (A→B) and basolateral to apical (B→A) directions. […] The efflux ratio basolateral (B) to apical (A) was calculated by dividing the Papp B−A by the Papp A−B. In addition the compound recovery was calculated.

Converted amounts (≈) assume the structure as drawn.

For orientation: thermodynamic solubility means solubility found after equilibrating the solid with the medium. For the molecule `COc1cc(F)ccc1-c1nc(Nc2cc(F)cc(CS(C)(=N)=NCCCO)c2)ncc1F` (racemic) [Example 6, (rac)-3-{[(3-Fluoro-5-{[5-fluoro-4-(4-fluoro-2-methoxyphenyl)pyrimidin-2-yl]amino}benzyl)(imino)methyl-λ^6-sulfanylidene]amino}propan-1-ol], the IC50 with HeLa cells turned out to be 507 nM; at CDK2/CycE [2] it was 970 nM; against CDK2/CycE [3] it was 19.8 µM. In [1], this molecule yielded a thermodynamic solubility at 24 h of 259 µg/mL (≈ 540 µM).

Regarding `CN=S(C)(=N)Cc1cc(F)cc(Nc2ncc(F)c(-c3ccc(F)cc3OC)n2)c1` (racemic) [Example 2, (rac)-N-{3-[(N,S-Dimethylsulfonodiimidoyl)methyl]-5-fluorophenyl}-5-fluoro-4-(4-fluoro-2-methoxyphenyl)pyrimidin-2-amine], the IC50 in the data set on HeLa cells stood at 412 nM; in the data set on HeLa-MaTu-ADR cells, 793 nM; in the data set with NCI-H460 cells, 968 nM; in the data set with DU145 cells, 636 nM; with Caco-2 cells, 849 nM; with B16F10 cells, 1120 nM. The IC50 in the data set on A2780 cells was 333 nM; against CDK2/CycE [2], 1300 nM; on CDK2/CycE [3] it was 13 µM. In data set [1], this molecule showed a solubility (thermodynamic) at 24 h of 97 µg/mL (≈ 223 µM).

Broadly, the Papp A→B is the apparent permeability from the apical to the basolateral side of a cell layer. The Papp B→A is the apparent permeability from the basolateral to the apical side of a cell layer. With `COc1cc(F)ccc1-c1nc(Nc2cc(F)cc(CS(C)(=N)=NC#N)c2)ncc1F` (racemic) [Example 5, (rac)-[(3-Fluoro-5-{[5-fluoro-4-(4-fluoro-2-methoxyphenyl)pyrimidin-2-yl]amino}benzyl)(imino)methyl-λ^6-sulfanylidene]cyanamide], the IC50 amounted to 73 nM with HeLa cells; 80 nM with HeLa-MaTu-ADR cells; 193 nM in the data set with NCI-H460 cells; 42 nM in the data set with DU145 cells; 94 nM in the data set with Caco-2 cells; 122 nM with B16F10 cells. Also, the IC50 in the data set with A2780 cells came to 35 nM; against CDK2/CycE [2], 190 nM; on CDK2/CycE [3], 1.47 µM. For the same molecule, in data set [4] (read-out: Papp A−B (Mari)), the Papp A→B at 2 h, 2 µM was determined as 2.88 ×10⁻⁶ cm/s. The Papp B→A at 2 h, 2 µM in [4] (read-out: Papp B−A (Mari)) came to 19.9 ×10⁻⁶ cm/s.

In the case of `C#CCN=S(C)(=N)Cc1cc(F)cc(Nc2ncc(F)c(-c3ccc(F)cc3OC)n2)c1` (racemic) [Example 4, (rac)-5-Fluoro-4-(4-fluoro-2-methoxyphenyl)-N-(3-fluoro-5-{[S-methyl-N-(prop-2-yn-1-yl)sulfonodiimidoyl]methyl}phenyl)pyrimidin-2-amine], the IC50 is 535 nM with HeLa cells; 696 nM in the data set on HeLa-MaTu-ADR cells; 935 nM in the data set with NCI-H460 cells; 581 nM in the data set with DU145 cells; 847 nM in the data set with Caco-2 cells; 1130 nM in the data set with B16F10 cells. The IC50 in the data set with A2780 cells is 355 nM; on CDK2/CycE [2] it was 580 nM; on CDK2/CycE [3], 4.29 µM.

For `COc1cc(F)ccc1-c1nc(Nc2cc(F)cc(CS(C)(=N)=Nc3ccccc3)c2)ncc1F` (racemic) [Example 3, (rac)-5-Fluoro-4-(4-fluoro-2-methoxyphenyl)-N-{3-fluoro-5-[(S-methyl-N-phenylsulfonodiimidoyl)methyl]phenyl}pyrimidin-2-amine], the IC50 is 991 nM with HeLa cells; 863 nM in the data set with HeLa-MaTu-ADR cells; 1090 nM with NCI-H460 cells; 1050 nM in the data set with DU145 cells; 1000 nM in the data set with Caco-2 cells; 1270 nM in the data set with B16F10 cells. For the same molecule, the IC50 in the data set with A2780 cells was 548 nM; at CDK2/CycE [2], 1400 nM. Moreover, in data set [1], the solubility (thermodynamic) at 24 h came out at 1.4 µg/mL (≈ 2.81 µM).

(Values after patent publication US9790189B2, “Disubstituted 5-fluoro pyrimidine derivatives containing a sulfondiimine group” (Bayer Pharma Aktiengesellschaft, priority 2014, dated 2017).)
